Patent publication US20230085307A1, “PYRIDAZINONE COMPOUND AND HERBICIDE” (NISSAN CHEMICAL CORPORATION, priority 2019, published 2023)

Tests used:
wild oat [1] = assay: Test Example 4: herbicidal effect by soil treatment (Table 19, symbol I); assay type: in vivo, wild oat (Avena fatua); settings: amount of applied herbicide 320 g/ha
Summary of the method: (§1)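 Three weeks of greenhouse growth at 25° C. to 30° C. followed a uniform surface spray of water-diluted emulsion at a predetermined herbicide amount. Seeds had been sown beforehand under about 1.5 cm of sterilized diluvial soil. Grading followed criteria set out in an earlier test.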

southern crabgrass [2] = assay: Test Example 5: herbicidal effect by foliage application, plastic box (Table 20, symbol F); assay type: in vivo, southern crabgrass (Digitaria ciliaris); settings: foliage application, 320 g/ha
Summary of the method: (§2)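 Plants sown in sterilized diluvial soil and grown 14 days in a greenhouse at 25° C to 30° C, then sprayed on the foliage with the compound's emulsion diluted in water to a predetermined herbicide amount. Injury to weeds and crops scored three weeks after application on a visual rating scale.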

persian speedwell [3] = assay: Test Example 4: herbicidal effect by soil treatment (Table 19, symbol R); assay type: in vivo, Persian speedwell (Veronica persica); settings: amount of applied herbicide 320 g/ha
Summary of the method: as §1

green foxtail [4] = assay: Test Example 4: herbicidal effect by soil treatment (Table 19, symbol G); assay type: in vivo, green foxtail (Setaria viridis); settings: amount of applied herbicide 320 g/ha
Summary of the method: as §1

Italian ryegrass [5] = assay: Test Example 5: herbicidal effect by foliage application, plastic box (Table 20, symbol K); assay type: in vivo, Italian ryegrass (Lolium multiflorum); settings: foliage application, 320 g/ha
Summary of the method: as §2

windgrass [6] = assay: Test Example 5: herbicidal effect by foliage application, plastic box (Table 20, symbol L); assay type: in vivo, windgrass (Apera spica-venti); settings: foliage application, 320 g/ha
Summary of the method: as §2

Italian ryegrass [7] = assay: Test Example 4: herbicidal effect by soil treatment (Table 19, symbol K); assay type: in vivo, Italian ryegrass (Lolium multiflorum); settings: amount of applied herbicide 320 g/ha
Summary of the method: as §1

persian speedwell [8] = assay: Test Example 5: herbicidal effect by foliage application, plastic box (Table 20, symbol R); assay type: in vivo, Persian speedwell (Veronica persica); settings: foliage application, 320 g/ha
Summary of the method: as §2

rice flat sedge = assay: Test Example 3: herbicidal effect by foliage application, Wagner pot (Table 18, symbol E); assay type: in vivo, rice flat sedge (Cyperus iria); settings: amount of applied herbicide 320 g/ha
Summary of the method: (§3)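 Plants were sown in alluvial soil held under 0.1–0.5 cm standing water and grown 14 days in a greenhouse at 25–30 °C. An emulsifiable formulation, water-diluted to the set dose, was then sprayed onto the foliage, and effects were scored three weeks later using previously defined criteria.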

chickweed [9] = assay: Test Example 4: herbicidal effect by soil treatment (Table 19, symbol P); assay type: in vivo, common chickweed (Stellaria media); settings: amount of applied herbicide 320 g/ha
Summary of the method: as §1

blackgrass [10] = assay: Test Example 5: herbicidal effect by foliage application, plastic box (Table 20, symbol J); assay type: in vivo, blackgrass (Alopecurus myosuroides); settings: foliage application, 320 g/ha
Summary of the method: as §2

chickweed [11] = assay: Test Example 5: herbicidal effect by foliage application, plastic box (Table 20, symbol P); assay type: in vivo, common chickweed (Stellaria media); settings: foliage application, 320 g/ha
Summary of the method: as §2

velvetleaf [12] = assay: Test Example 4: herbicidal effect by soil treatment (Table 19, symbol M); assay type: in vivo, velvetleaf (Abutilon theophrasti); settings: amount of applied herbicide 320 g/ha
Summary of the method: as §1

redroot pigweed [13] = assay: Test Example 4: herbicidal effect by soil treatment (Table 19, symbol N); assay type: in vivo, redroot pigweed (Amaranthus retroflexus); settings: amount of applied herbicide 320 g/ha
Summary of the method: as §1

Chinese sprangletop = assay: Test Example 3: herbicidal effect by foliage application, Wagner pot (Table 18, symbol D); assay type: in vivo, chinese sprangletop (Leptochloa chinensis); settings: amount of applied herbicide 320 g/ha
Summary of the method: as §3

windgrass [14] = assay: Test Example 4: herbicidal effect by soil treatment (Table 19, symbol L); assay type: in vivo, windgrass (Apera spica-venti); settings: amount of applied herbicide 320 g/ha
Summary of the method: as §1

barnyard grass [15] = assay: Test Example 5: herbicidal effect by foliage application, plastic box (Table 20, symbol H); assay type: in vivo, barnyard grass (Echinochloa crus-galli); settings: foliage application, 320 g/ha
Summary of the method: as §2

false cleavers = assay: Test Example 4: herbicidal effect by soil treatment (Table 19, symbol Q); assay type: in vivo, false cleavers (Galium spurium); settings: amount of applied herbicide 320 g/ha
Summary of the method: as §1

blackgrass [16] = assay: Test Example 4: herbicidal effect by soil treatment (Table 19, symbol J); assay type: in vivo, blackgrass (Alopecurus myosuroides); settings: amount of applied herbicide 320 g/ha
Summary of the method: as §1

wild oat [17] = assay: Test Example 5: herbicidal effect by foliage application, plastic box (Table 20, symbol I); assay type: in vivo, wild oat (Avena fatua); settings: foliage application, 320 g/ha
Summary of the method: as §2

barnyard grass [18] = assay: Test Example 3: herbicidal effect by foliage application, Wagner pot (Table 18, symbol H); assay type: in vivo, barnyard grass (Echinochloa crus-galli); settings: amount of applied herbicide 320 g/ha
Summary of the method: as §3

lambsquarters [19] = assay: Test Example 5: herbicidal effect by foliage application, plastic box (Table 20, symbol O); assay type: in vivo, lambsquarters (Chenopodium album); settings: foliage application, 320 g/ha
Summary of the method: as §2

lambsquarters [20] = assay: Test Example 4: herbicidal effect by soil treatment (Table 19, symbol O); assay type: in vivo, lambsquarters (Chenopodium album); settings: amount of applied herbicide 320 g/ha
Summary of the method: as §1

southern crabgrass [21] = assay: Test Example 4: herbicidal effect by soil treatment (Table 19, symbol F); assay type: in vivo, southern crabgrass (Digitaria ciliaris); settings: amount of applied herbicide 320 g/ha
Summary of the method: as §1

redroot pigweed [22] = assay: Test Example 5: herbicidal effect by foliage application, plastic box (Table 20, symbol N); assay type: in vivo, redroot pigweed (Amaranthus retroflexus); settings: foliage application, 320 g/ha
Summary of the method: as §2

green foxtail [23] = assay: Test Example 5: herbicidal effect by foliage application, plastic box (Table 20, symbol G); assay type: in vivo, green foxtail (Setaria viridis); settings: foliage application, 320 g/ha
Summary of the method: as §2

velvetleaf [24] = assay: Test Example 5: herbicidal effect by foliage application, plastic box (Table 20, symbol M); assay type: in vivo, velvetleaf (Abutilon theophrasti); settings: foliage application, 320 g/ha
Summary of the method: as §2

barnyard grass [25] = assay: Test Example 4: herbicidal effect by soil treatment (Table 19, symbol H); assay type: in vivo, barnyard grass (Echinochloa crus-galli); settings: amount of applied herbicide 320 g/ha
Summary of the method: as §1

[26] = evaluated 3 weeks after application

C=CCSc1ccc(-c2sc3ccc(F)cc3c2-c2c(O)c(C)nn(C)c2=O)cc1 [2-422]
herbicidal effect, I: wild oat (wild oat [1]): 0 (Herbicidal rate of 5% or less (almost no effect))
F: southern crabgrass, herbicidal effect grade (southern crabgrass [2]; three weeks after application): 2 (Herbicidal rate of 20% or more and less than 40%)
herbicidal effect, R: persian speedwell (persian speedwell [3]): 0 (Herbicidal rate of 5% or less (almost no effect))
herbicidal effect, G: green foxtail (green foxtail [4]): 2 (Herbicidal rate of 20% or more and less than 40%)
K: Italian ryegrass, herbicidal effect grade (Italian ryegrass [5]; three weeks after application): 5 (Herbicidal rate of 90% or more (almost completely withered))
L: windgrass, herbicidal effect grade (windgrass [6]; three weeks after application): 5 (Herbicidal rate of 90% or more (almost completely withered))
herbicidal effect, K: Italian ryegrass (Italian ryegrass [7]): 0 (Herbicidal rate of 5% or less (almost no effect))
R: persian speedwell, herbicidal effect grade (persian speedwell [8]; three weeks after application): 5 (Herbicidal rate of 90% or more (almost completely withered))
herbicidal effect on E: rice flat sedge (rice flat sedge): 5 (Herbicidal rate of 90% or more (almost completely withered))
herbicidal effect, P: chickweed (chickweed [9]): 0 (Herbicidal rate of 5% or less (almost no effect))
J: blackgrass, herbicidal effect grade (blackgrass [10]; three weeks after application): 4 (Herbicidal rate of 70% or more and less than 90%)
P: chickweed, herbicidal effect grade (chickweed [11]; three weeks after application): 5 (Herbicidal rate of 90% or more (almost completely withered))
herbicidal effect, M: velvetleaf (velvetleaf [12]): 1 (Herbicidal rate of 5% or more and less than 20%)
herbicidal effect, N: redroot pigweed (redroot pigweed [13]): 5 (Herbicidal rate of 90% or more (almost completely withered))
herbicidal effect on D: Chinese sprangletop (Chinese sprangletop): 3 (Herbicidal rate of 40% or more and less than 70%)
herbicidal effect, L: windgrass (windgrass [14]): 0 (Herbicidal rate of 5% or less (almost no effect))
H: barnyard grass, herbicidal effect grade (barnyard grass [15]; three weeks after application): 5 (Herbicidal rate of 90% or more (almost completely withered))
herbicidal effect, Q: false cleavers (false cleavers): 0 (Herbicidal rate of 5% or less (almost no effect))
herbicidal effect, J: blackgrass (blackgrass [16]): 0 (Herbicidal rate of 5% or less (almost no effect))
I: wild oat, herbicidal effect grade (wild oat [17]; three weeks after application): 5 (Herbicidal rate of 90% or more (almost completely withered))
herbicidal effect on H: barnyard grass (barnyard grass [18]): 5 (Herbicidal rate of 90% or more (almost completely withered))
O: lambsquarters, herbicidal effect grade (lambsquarters [19]; three weeks after application): 5 (Herbicidal rate of 90% or more (almost completely withered))
herbicidal effect, O: lambsquarters (lambsquarters [20]): 3 (Herbicidal rate of 40% or more and less than 70%)
herbicidal effect, F: southern crabgrass (southern crabgrass [21]): 1 (Herbicidal rate of 5% or more and less than 20%)
N: redroot pigweed, herbicidal effect grade (redroot pigweed [22]; three weeks after application): 5 (Herbicidal rate of 90% or more (almost completely withered))
G: green foxtail, herbicidal effect grade (green foxtail [23]; three weeks after application): 5 (Herbicidal rate of 90% or more (almost completely withered))
M: velvetleaf, herbicidal effect grade (velvetleaf [24]; three weeks after application): 5 (Herbicidal rate of 90% or more (almost completely withered))
herbicidal effect, H: barnyard grass (barnyard grass [25]): 1 (Herbicidal rate of 5% or more and less than 20%)

Cc1nn(C)c(=O)c(-c2c(-c3ccc(Cl)s3)oc3ccc(F)cc23)c1O [9-047]
I: wild oat, herbicidal effect grade (wild oat [1]): 0 (Herbicidal rate of 5% or less (almost no effect))
F (southern crabgrass) herbicidal effect grade (southern crabgrass [2]; [26]): 3 (Herbicidal rate of 40% or more and less than 70%)
R: persian speedwell, herbicidal effect grade (persian speedwell [3]): 1 (Herbicidal rate of 5% or more and less than 20%)
G: green foxtail, herbicidal effect grade (green foxtail [4]): 0 (Herbicidal rate of 5% or less (almost no effect))
K (Italian ryegrass) herbicidal effect grade (Italian ryegrass [5]; [26]): 4 (Herbicidal rate of 70% or more and less than 90%)
L (windgrass) herbicidal effect grade (windgrass [6]; [26]): 0 (Herbicidal rate of 5% or less (almost no effect))
K: Italian ryegrass, herbicidal effect grade (Italian ryegrass [7]): 4 (Herbicidal rate of 70% or more and less than 90%)
R (persian speedwell) herbicidal effect grade (persian speedwell [8]; [26]): 4 (Herbicidal rate of 70% or more and less than 90%)
Herbicidal effect on E (rice flat sedge), foliage application (rice flat sedge): 3 (Herbicidal rate of 40% or more and less than 70%)
P: chickweed, herbicidal effect grade (chickweed [9]): 0 (Herbicidal rate of 5% or less (almost no effect))
J (blackgrass) herbicidal effect grade (blackgrass [10]; [26]): 0 (Herbicidal rate of 5% or less (almost no effect))
P (chickweed) herbicidal effect grade (chickweed [11]; [26]): 5 (Herbicidal rate of 90% or more (almost completely withered))
M: velvetleaf, herbicidal effect grade (velvetleaf [12]): 0 (Herbicidal rate of 5% or less (almost no effect))
N: redroot pigweed, herbicidal effect grade (redroot pigweed [13]): 3 (Herbicidal rate of 40% or more and less than 70%)
Herbicidal effect on D (Chinese sprangletop), foliage application (Chinese sprangletop): 0 (Herbicidal rate of 5% or less (almost no effect))
L: windgrass, herbicidal effect grade (windgrass [14]): 0 (Herbicidal rate of 5% or less (almost no effect))
H (barnyard grass) herbicidal effect grade (barnyard grass [15]; [26]): 3 (Herbicidal rate of 40% or more and less than 70%)
Q: false cleavers, herbicidal effect grade (false cleavers): 0 (Herbicidal rate of 5% or less (almost no effect))
J: blackgrass, herbicidal effect grade (blackgrass [16]): 0 (Herbicidal rate of 5% or less (almost no effect))
I (wild oat) herbicidal effect grade (wild oat [17]; [26]): 1 (Herbicidal rate of 5% or more and less than 20%)
Herbicidal effect on H (barnyard grass), foliage application (barnyard grass [18]): 2 (Herbicidal rate of 20% or more and less than 40%)
O (lambsquarters) herbicidal effect grade (lambsquarters [19]; [26]): 1 (Herbicidal rate of 5% or more and less than 20%)
O: lambsquarters, herbicidal effect grade (lambsquarters [20]): 0 (Herbicidal rate of 5% or less (almost no effect))
F: southern crabgrass, herbicidal effect grade (southern crabgrass [21]): 0 (Herbicidal rate of 5% or less (almost no effect))
N (redroot pigweed) herbicidal effect grade (redroot pigweed [22]; [26]): 3 (Herbicidal rate of 40% or more and less than 70%)
G (green foxtail) herbicidal effect grade (green foxtail [23]; [26]): 2 (Herbicidal rate of 20% or more and less than 40%)
M (velvetleaf) herbicidal effect grade (velvetleaf [24]; [26]): 2 (Herbicidal rate of 20% or more and less than 40%)
H: barnyard grass, herbicidal effect grade (barnyard grass [25]): 0 (Herbicidal rate of 5% or less (almost no effect))
